The format of data set [1] is in vivo, Rattus norvegicus. To be noted: about 3.4 mg/kg difethialone per os (40% homo-, 60% hetero-stereoisomer, each racemic), mean of six rats. As to the method: About 0.525 g (±0.025 g) of rat liver is weighed out accurately and placed in a 50 mL polypropylene tube. 10 mL of acetone are added and the suspension is homogenized using an Ultra-Turrax® homogenizer/disperser for a time of about 30 seconds. The homogenizer/disperser shaft is rinsed with hot water and then twice with 20 mL of acetone in a polypropylene tube. The homogenate is centrifuged for 5 minutes at a centrifugation speed of 3000 rpm (revolutions per minute). The supernatant is collected and transferred into a test tube. The sample is subjected to evaporation under a stream of nitrogen (N2) at a temperature of 40° C. so as to form a dry extract.
1 mL of acetonitrile is added to the tube containing the dry extract so as to dissolve it. The acetonitrile solution is washed twice successively with 1 mL of hexane. The lipid-free extract is dried under a stream of nitrogen (N2) at a temperature of 40° C. and is then taken up in 0.5 mL of methanol and dissolved by vortex stirring. 0.5 mL of ultra-pure (Milli-Q) water is then added. The sample is vortex-homogenized.
1 mL of dichloromethane, then 1 mL of methanol, then 1 mL of ultra-pure (Milli-Q) water are passed through an Oasis HLB 1 cc cartridge (WAT094225, Waters). The lipid-free liver extract (1 mL of MeOH/Milli-Q H2O) containing difethialone is then loaded onto the top of the cartridge so that the liver extract penetrates through the cartridge by gravity on contact with the solid phase. 1 mL of washing solution formed from methanol and ultra-pure water in a 90/10 volume proportion is then loaded onto the top of the cartridge. The cartridge is dried by suction under vacuum connected to the bottom of the cartridge. 1 mL of eluting solution formed from dichloromethane and methanol in a 90/10 volume proportion is then loaded onto the top of the cartridge and an eluate comprising difethialone is collected at the bottom of the cartridge. The solvent of the eluate is evaporated off under a stream of nitrogen (N2) at a temperature of 40° C. The sample is taken up in 0.5 mL of acetonitrile and the acetonitrile solution containing difethialone is filtered through a 0.2 μm filter.
The composition is analysed by high-pressure liquid chromatography on a chiral column as described in point A2) above.
A solution of a mixture of homo-stereoisomer (DFN-Homo-SI) and of hetero-stereoisomer (DFN-Hetero-SI) of difethialone in a mixture of vegetable oil and 5% DMSO is administered by tube-feeding (“per os”) to 8-week-old coumaphen-sensitive rats (male and female Rattus norvegicus) weighing about 200 g. The molar proportion of homo-stereoisomer is 40% and the molar proportion of hetero-stereoisomer is 60%. Each configurational stereoisomer of difethialone is formed from a racemic mixture of the two enantiomers of said corresponding configurational stereoisomer.
On D0, a tube-feeding solution is administered to each rat so that the amount of difethialone ingested by each rat is about 3.4 mg per kilogram of rat. To avoid haemorrhage, the rats are also treated daily by subcutaneous administration of a dose of vitamin K1 (as haemorrhage antidote) at a rate of […] per 200 g of live rat weight.
At 4 hours (H+4), 9 hours (H+9), 24 hours (H+24), 120 hours (H+120), 168 hours (H+168) and 216 hours (H+216) after tube-feeding, three male rats and three female rats anaesthetized beforehand with isoflurane are euthanized, the liver of the euthanized rats is removed, the difethialone is then extracted from the liver, the amount of each of the configurational stereoisomers of difethialone is assayed, the area under the peaks in the chromatogram obtained is measured and each configurational stereoisomer is quantified by comparison with a calibration curve. […]

Data set [2] is classed as in vivo, Rattus norvegicus. The following applies: 48 hours after tube-feeding; about 3.4 mg/kg difethialone per os (40% homo-, 60% hetero-stereoisomer, each racemic); mean of six rats.
The mark [3] stands for this setting: 4 hours after tube-feeding, daily vitamin K1.

Like-named read-outs stand apart in the source and are kept apart here.

With `Oc1c(C2CC(c3ccc(-c4ccc(Br)cc4)cc3)Cc3ccccc32)c(=S)oc2ccccc12` (single isomer, unassigned) [DFN-Hetero-dextro, 3-(4′-bromobiphenyl-4-yl)-1-(4-hydroxythiocoumarin-3-yl)-1,2,3,4-tetrahydronaphthalene], the Hepatic content in data set [1] (setting [3]) is reported as 10589.5 ng/g; in data set [1] (9 hours after tube-feeding), 12155.5 ng/g; in data set [1] (24 hours after tube-feeding), 8102 ng/g; in data set [1] (120 hours after tube-feeding), 5431.5 ng/g; in data set [1] (168 hours after tube-feeding), 3011 ng/g; in data set [1] (216 hours after tube-feeding), 4030.5 ng/g. For the same compound, the Hepatic content in data set [2] was found to be 7974.5 ng/g.
Take `Oc1c(C2CC(c3ccc(-c4ccc(Br)cc4)cc3)Cc3ccccc32)c(=S)oc2ccccc12` (single isomer, unassigned) [DFN-Homo-dextro, 3-(4′-bromobiphenyl-4-yl)-1-(4-hydroxythiocoumarin-3-yl)-1,2,3,4-tetrahydronaphthalene]: the Hepatic content was found to be 4566 ng/g in data set [1] (setting [3]); 4692.5 ng/g in data set [1] (9 hours after tube-feeding); 1243.5 ng/g in data set [1] (24 hours after tube-feeding); 192.5 ng/g in data set [1] (120 hours after tube-feeding); 129 ng/g in data set [1] (168 hours after tube-feeding); 77.5 ng/g in data set [1] (216 hours after tube-feeding). The compound further showed a Hepatic content in data set [2] of 720.5 ng/g.
